The values that follow come from patent US20090186088A1, “INHALABLE DRUG” (NanoMaterials Technology Pte Ltd, priority 2005, published 2009).

The conditions of data set [1]: British Pharmacopoeia; cited from earlier work.
Data set [2] is described as follows: Dispersion experiments in multi-stage liquid impinger (MSLI), fine particle fraction. Format: physicochemical. Conditions: beaker-synthesised powder, 60 L/min, 4 seconds. The text has this:
The measurement of particle sizes in vitro allows a simplistic estimation of the aerodynamic particle size distribution. This process utilizes cascade or impactor devices such as the multi-stage liquid impinger (MSLI) (FIG. 7) to provide a breakdown of the particle size distribution through separation and collection of powder of different Da.
The MSLI consists of 5 stages which have been calibrated at 60 L/min to collect powder of a certain Da, known as the cut-off Da:
At flow rates of 60-100 L/min, the particles which have a Da of less than 5 μm are expected to be able to surpass oropharangeal deposition and the filter of the MSLI from equation 3. From the results of the MSLI, the FPF (fine particle fraction) can be calculated, and expressed as two different forms: […]
The recovery was also calculated for each dispersion which represents the mass of powder which was accounted for compared with the mass which was loaded into the capsules (Equation 6).
The equipment used to perform the dispersion experiments was the MSLI, which has been described earlier. […] The supernatant was then collected. • Step 11: All rinsings were collected into separately labeled glass vials and analyzed by UV immediately to minimize the effect of evaporation, which would produce an overestimation of the concentration collected.

Data set [3] is classed as physicochemical. The text has this: The aim of this experiment was to achieve a suspension containing fine Salbutamol sulfate precipitate. […] Alcohol (ethanol) therefore was considered to be the best choice, considering the safety of the possible solvents. The solubility of a solid is a function of the solid particle size according to Equation 1
where R is the gas constant, T the absolute temperature, S and Sr the solubility of large solid particles and of particles having small radius r respectively, and M, σ, and d are the molecular weight, surface tension, and density of the solid respectively. It will be appreciated from Eq. 1 that the solubility of a solid will increase as the particle size decreases. […] Consequently, when one considers the yield of the process, alcohol no longer appears suitable. […] Further, IPA is a commonly used organic solvent.

Turning to `CC(C)(C)NCC(O)c1ccc(O)c(CO)c1` (stereo not shown) [Salbutamol base], in data set [1], the solubility in alcohol result is “soluble”, the solubility in ether entry is reported as “slightly soluble” and the solubility in water result is “sparingly soluble”.

Take Salbutamol sulfate: in data set [2], the “reduction in FPF(emitted), Rotahaler vs Aeroliser” value is listed as ~30% and the “reduction in FPF(total), Rotahaler vs Aeroliser” value is ~20%. In addition, the “solubility in IPA” value in data set [3] is recorded as “somewhat lower than in alcohol”. In addition, in data set [1], the solubility in alcohol entry was “slightly soluble”, the solubility in ether entry is “slightly soluble”, the “solubility in methylene chloride” value is listed as “very slightly soluble” and the solubility in water result was “freely soluble”.
